Data as given in patent US9592305B2, “Compositions of jasmonate compounds and methods of use” (Nanocare Technologies, Inc., priority 2011, dated 2017).

What was measured:
PGE2 = PGE2 production by HUVEC, ELISA of culture supernatants; type: cell-based, human; conditions: 1×10^4 cells/mL and 2×10^5 cells/mL plating
Experimental: (§1) Cell lines used: non-neoplastic cells derived from human umbilical cord endothelial (HUVEC) and neoplastic cells of melanoma, B16F10 murine tumor. The HUVECs were provided by Dra. Dulcinea Saes Parra Abdalla, Department of Clinical and Toxicological Analyses, FCF-USP's and B16F10 murine melanoma cells, by Prof. Marcia Cominetti Department of Physiology and Molecular Biology of UFSCar. Both strains were grown in RPMI with 10% fetal calf serum. […] The preliminary investigation of the effect on angiogenesis was also made in vitro with HUVEC. The measures were undertaken to study the cell cycle by flow cytometry (propidium iodide and acridine orange) the assessment of mitochondrial activity by confocal microscopy (Mitotracker Red), and measurement of VEGF and PGE2 production by HUVEC, we performed cell culture supernatants by ELISA with commercial antibodies.

HUVEC [1] = test: Mitochondrial activity of endothelial cells, Mitotracker Red confocal microscopy; type: cell-based, human; conditions: low-density plating
Experimental: FIGS. 15A-15F each show effect of MDJ on the mitochondrial activity of endothelial cells after 4 h of exposure in low-density plating on glass coverslips 25 mm in 24-well plates, as measured by Mitotracker red fluorescence confocal microscopy, increased 80× (40×+2× digital zoom). The calibration parameters were maintained for all measures. […] Concentrations equal to or greater than 1 mM lead to a decrease in the intensity/area of marking.
FIG. 16: Effect of MDJ on the mitochondrial activity of endothelial cells after 24 hours exposure in low-density plating on glass coverslips 25 mm in 24-well plates, as measured by Mitotracker Red fluorescence in confocal microscope, 40× magnification. The calibration parameters were maintained for all measurements, each point is the average of six independent measurements.
Cell lines used: non-neoplastic cells derived from human umbilical cord endothelial (HUVEC) and neoplastic cells of melanoma, B16F10 murine tumor. The HUVECs were provided by Dra. Dulcinea Saes Parra Abdalla, Department of Clinical and Toxicological Analyses, FCF-USP's and B16F10 murine melanoma cells, by Prof. Marcia Cominetti Department of Physiology and Molecular Biology of UFSCar. Both strains were grown in RPMI with 10% fetal calf serum. […] The preliminary investigation of the effect on angiogenesis was also made in vitro with HUVEC. […]

[2] = tested on: B16F10 murine melanoma cells; test: MTT cytotoxicity and growth curves in murine melanoma cells; type: cell-based; conditions: cultures of murine melanoma
CAM blood vessels = conditions: in vivo
Experimental: For the tests with eggs, egg whites were used Gallus gallus incubated in a thermostated incubator at controlled temperature and humidity. The incubation was performed with and without eggs lying giragem. A mark on the upper surface of the bark was used to control this procedure. The eggs were opened on the fourth day of incubation, after careful cleaning of the skin with cotton wool soaked in 70% alcohol. The opening was performed in laminar flow, keeping all your eggs in the same position in which they were hatched, supported on a plastic holder and marked on the upper surface. The experimental procedure was adapted and refined for the project, drawing on the first half of the twentieth century. The description of the method developed
After the opening and closing of windows all eggs were replaced in the incubator, with the same initial conditions and maintained for a further seven days, typically. […]
After brief fixation, the hull was breached and the embryo inert placed on a petri dish. […] In each trial, the image was captured from the fund, kept the lighting and color adjustments in order to standardize the images of the analyzed material. […]
Each region of the same sample was imaged in bright field and dark field, for better observation of details. The growth of the vascular network was analyzed with the program Image J by processing the images in bright field binary images. […]

B16F10 murine melanoma = test: CAM model inoculated with B16F10 murine melanoma; type: in vivo
Experimental: After the opening and closing of windows all eggs were replaced in the incubator, with the same initial conditions and maintained for a further seven days, typically. In this interval procedures were carried out for tests of angiogenesis or for research on tumor growth in vivo. The observation of angiogenesis in eggs inoculated with tumor cells followed virtually the same test model of angiogenesis. Exposure to pure MDJ (cis/trans 96% pure from Sigma) or cyclodextrin-carried MDJ made in Example 3 above was performed on day 8, with the remaining eggs in the incubator until day 14. The inoculation with the melanoma cells was performed on day 4, eggs received MDJ pure or cyclodextrin-carried MDJ on the 8th day and remained incubated up to 14 days. During the development of the protocol, the time of inoculation and treatment were adjusted. Care during the collection and to obtain the images were standardized for all experiments.
The typical inoculum was 2×10^4 cells per egg, in a volume of culture medium less than […]. Melamona growth was accompanied by visual inspection of pigmented mass formation on the CAM, the magnifying glass and microscope. […]
Eggs used were measured by sampling and the average volume of 60 mL was maintained throughout the period of testing with a standard deviation below 10%. […] The tests of viability were monitored for up to 10 days. […]

[3] = Toxicity observations in the MNNG colon tumor study (histopathology, hematology, clinical chemistry); conditions: mouse, in vivo, ip
Experimental: (§2) Briefly, Balb/c mice were treated by intrarectal instillations of the carcinogen N-methyl-N′-nitro-N-nitrosoguanidine (MNNG), twice a week for 2 weeks (XX), and were sacrificed 24 weeks after the beginning of the treatment. Ten days before the end of the experiment, the animals of group A (n=10) were treated with daily i.p. injections of cyclodextrin-carried MDJ (10 μL of saline solution with 1 millimolar MDJ) for every 60 grams of body weight. The animals of group B (n=10) were treated by daily intrarectal instillations of cyclodextrin-carried MDJ, at the same dosage. The group C (n=10) was treated with MNNG and with daily i.p. injections of MDJ (diluted at 10% in 100 μL of saline). The animals of the group D were treated with MNNG and by daily intrarectal instillations of MDJ, at the same dosage. The control group E was treated with MNNG alone. The control groups F and G were treated with saline and cyclodextrin-carried MDJ, i.p. and i.r, respectively. The control groups H and I received saline and MDJ, i.p. and i.r, respectively. The dosages of cyclodextrin-carried MDJ and MDJ were based on previous animal pilot studies.
Colon tumor (T), adjacent non-tumor site (NT), macroscopically normal colonic mucosa from non-tumor rats (N) in the same treatment group were obtained. […] Standard hematology and clinical chemistry parameters were also monitored.

HUVEC [4] = test: Cell cycle by flow cytometry (propidium iodide, acridine orange) in HUVEC; type: cell-based, human
Experimental: FIG. 13: Effect of MDJ on the cell cycle in HUVEC after 18 h of exposure in vitro. The concentrations used in each test are shown in graphics measures cell cycle were performed on a BD FACScalibur equipment, after labeling with propidium iodide simple. The staining with acridine orange served as a control of the process of apoptosis.
as §1

[5] = tested on: chemically induced colon tumors; test: Chemically (MNNG) induced colon tumors in mice: tumor size, PCNA, apoptotic index, CASPASE-3; type: in vivo, Balb/c mice
Experimental: The effect of cyclodextrin-carried MDJ made in Example 3 above was studied in an experimental model of colonic cancer in mice. Apoptosis and cell proliferation, the two most important events related to tumor growth were investigated. The apoptosis and proliferation indexes of colon tumor, adjacent non-cancer tissues and normal colonic tissues were determined. Apoptosis was quantified by apoptotic nuclei counting and CASPASE-3 immunostaining, whereas proliferation was determined by PCNA immunostaining.
The animals were maintained in agreement with the guidelines of Committee on Care and Uses of Laboratory Animals of the National Research Council of the National Institutes of Health (USA). The mice were fed with food and water ad libitum and maintained on hardwood bedding under a 12-h light/dark cycle. Animals were weighed weekly during the experiments. All experiments were approved by the USP Animal Ethics Committee.
as §2
Colon tumor (T), adjacent non-tumor site (NT), macroscopically normal colonic mucosa from non-tumor […] (N) in the same treatment group were obtained. Immunohistochemistry was performed to study cell proliferation by the Proliferating cellular antigen (PCNA) staining and to analyze cell apoptosis by both the apoptotic bodies counting and by the CASPASE-3 staining. Results were expressed and PCNA labeling index (PCNA-Li), Apoptotic Index (AI) and CASPASE-3 Labeling Index (CASPASE-3-Li). Standard hematology and clinical chemistry parameters were also monitored.
Apoptosis was determined by apoptotic nuclei counting. Sections were stained with hematoxylin and eosin to evaluate the number of apoptotic cells per section. The criteria used to recognize apoptotic cells were: shrunk size, loss of contact with surrounding tissues (at times forming the classically described halo) and nuclear condensation as previously described (Yu et al., Gut 2002, 51:480-484). At least 1 000 cells were counted in five random fields and the percentage of cells with apoptotic features was then calculated (apoptotic index or AI). The apoptotic nuclei counts were compared with findings obtained by CASPASE-3 immunostaining in 30 randomly selected areas. A strong correlation between apoptotic nuclei count and CASPASE-3 results was found (r=0.83, P<0.001).
Proliferation was assayed by immunoperoxidase staining for Proliferating Cell Nuclear Antigen (PCNA) as described previously. Briefly, paraffin-embedded sections from each specimen were labeled with PCNA antibody, after microwave antigen retrieval in citrate buffer. Negative controls were run by replacing the primary antibody with non-immune serum. The slides were developed in 3,3-diaminobenzidine tetrahydrochloride (DAB, Dako, Denmark) and counter-stained with Mayer haematoxylin. […]

[6] = Degradation in vivo (applicant's unpublished studies)
HUVEC [7] = test: MTT cytotoxicity and growth curves in endothelial cells; type: cell-based, human
VEGF = VEGF production by HUVEC, ELISA of culture supernatants; type: cell-based, human
Experimental: as §1

## CCCCCC1C(=O)CCC1CC(=O)OC (centres unmarked) [MDJ, methyl 2-(3-oxo-2-pentylcyclopentyl)acetate]
PGE2
  PGE2 production by HUVEC: no increase in PGE2 production
HUVEC [1]
  concentrations leading to a decrease in the intensity/area of Mitotracker red marking: ≥ 1 mM
[2]
  toxicity (MTT, growth curves) compared with HUVEC: toxic concentrations were very close
CAM blood vessels
  tolerability in fertilized eggs: well tolerated by the eggs
B16F10 murine melanoma; CAM model
  melanoma bodies on CAM: dose-dependent involution
B16F10 murine melanoma; eggs with B16F10
  survival of eggs inoculated with melanoma cells: partially recovered this survival
[3]
  tolerability of i.p. injections (groups C and H discharged): early signs or peritonitis
HUVEC [4]; MDJ 1 nM
  Distribution according to the phases of the cell cycle,% (18 h): Dead cells: 13%
  Distribution according to the phases of the cell cycle,% (18 h): G0/G1: 72%
  Distribution according to the phases of the cell cycle,% (18 h): G2/S: 15%
  Marking with Acridine Orange,% (18 h): 6.2 ± 0.1%
HUVEC [4]; MDJ 10 nM
  Distribution according to the phases of the cell cycle,% (18 h): Dead cells: 93%
  Distribution according to the phases of the cell cycle,% (18 h): G0/G1: 5%
  Distribution according to the phases of the cell cycle,% (18 h): G2/S: 2%
HUVEC [4]; MDJ 1 uM
  Marking with Acridine Orange,% (18 h): 12 ± 0.9%
HUVEC [4]; MDJ 10 uM
  Distribution according to the phases of the cell cycle,% (18 h): Dead cells: 7%
  Distribution according to the phases of the cell cycle,% (18 h): G0/G1: 60%
  Distribution according to the phases of the cell cycle,% (18 h): G2/S: 33%
  Marking with Acridine Orange,% (18 h): 9.0 ± 0.5%
HUVEC [4]; MDJ 100 uM
  Distribution according to the phases of the cell cycle,% (18 h): Dead cells: 8%
  Distribution according to the phases of the cell cycle,% (18 h): G0/G1: 56%
  Distribution according to the phases of the cell cycle,% (18 h): G2/S: 36%
  Marking with Acridine Orange,% (18 h): 6.7 ± 0.3%
[5]; MNNG-treated and non-MNNG animals
  cell proliferation and apoptosis in normal colonic mucosa and mucosa adjacent to tumors: not associated to any significant changes in cell proliferation and apoptosis
[5]; MNNG-treated mice, daily i.r.
  Apoptotic Index (Tumor): 0.29 ± 0.04
  Caspase-3-Li (tumor): 0.39 ± 0.11
[5]; MNNG-treated mice, daily i.r. instillation
  Tumor Size: 0.56 mm^2
[5]; colonic tumors, MNNG-treated mice, daily i.r.
  PCNA-Li: 0.41 ± 0.06
[5]; i.r. administration
  effect on tumor markers: mild, but significant reduction in the above tumor markers
[6]
  degradation in vivo: degraded very quickly in vivo
HUVEC [7]; HUVEC, at concentrations below 1 mM
  folding time (growth curves): about 20 h
HUVEC [7]; confluent HUVEC
  concentrations at which MTT dye reduction (mitochondrial activity) was maintained at a constant value: less than 1 mM
VEGF; MDJ 1 nM
  VEGF, pg/mL (2 × 10^6 cells, 4 h): 566 ± 31 pg/mL
VEGF; MDJ 10 uM
  VEGF, pg/mL (2 × 10^6 cells, 4 h): 319 ± 12 pg/mL
VEGF; MDJ 100 uM
  VEGF, pg/mL (2 × 10^6 cells, 4 h): 450 ± 30 pg/mL
